# Measured values published in ChEMBL document CHEMBL1201862, “PubChem BioAssay data set” (2004).
# Activity calls are given as the source filed them.
# Legend:
# [1] = molecular target: Dual specificity protein kinase CLK1 (Homo sapiens, UniProt P49759); assay: inhibition of human CLK1 activity – biochemical, cherry-picked samples, selectivity assay for Dyrk1A inhibitor project, dose response (AID 588811)
# [2] = molecular target: Dual specificity tyrosine-phosphorylation-regulated kinase 1A (Rattus norvegicus, UniProt Q63470); assay type: biochemical, Homo sapiens
# BJ [3] = assay: BJ-TERT fibroblast viability loss – cell-based, RAS-independent, luminescence, dose response (AID 1933); assay type: functional; details: Homo sapiens
# BJ [4] = assay: cells; assay type: functional, cell-based; details: Homo sapiens
# BJ [5] = assay: BJ-TERT-LT-ST fibroblast viability loss – cell-based, RAS-independent, luminescence, dose response (AID 1935); assay type: functional; details: Homo sapiens;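 further: BJ fibroblasts immortalized with TERT plus LT and ST oncogenes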
# [6] = DRD fibroblast viability loss – cell-based, non-viral oncogenic, luminescence, dose response (AID 1934); assay type: functional; details: Homo sapiens
# Jurkat = assay: blockers of NF-kB activation in T cells – Jurkat, luciferase reporter, luminescence, B- and T-cell, dose response (AID 489004); assay type: functional, cell-based; details: Homo sapiens;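 further: NF-kB luciferase reporter Jurkat cells stimulated with PMA plus ionomycin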
# [7] = HEK-293T viability loss, compound-treated – cell-based, uHTS hits, cytotoxicity control for B/T-cell NF-kB inhibitor project, dose response (AID 489019); assay type: functional;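 further: IC50 reflects cytotoxicity as loss of cell viability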
# BJ [8] = assay: growth inhibition of engineered Ras-driven BJ cells – cell-based, alamar blue fluorescence, cherrypicked samples, dose response (AID 2631); assay type: functional; details: Homo sapiens;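 further: confirmatory dose-response assay in RAS-dependent BJ fibroblasts engineered with TERT, LT and ST, with cytotoxicity read by fluorescence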
# [9] = molecular target: Beta-2 adrenergic receptor (Homo sapiens, UniProt P07550); assay: ADRB2 activation measured by internalization – cell-based, FAP fluorogen, flow cytometry, cherry pick 1, dose response (AID 588763); assay type: functional
# Sequence of Beta-2 adrenergic receptor (P07550 whole entry): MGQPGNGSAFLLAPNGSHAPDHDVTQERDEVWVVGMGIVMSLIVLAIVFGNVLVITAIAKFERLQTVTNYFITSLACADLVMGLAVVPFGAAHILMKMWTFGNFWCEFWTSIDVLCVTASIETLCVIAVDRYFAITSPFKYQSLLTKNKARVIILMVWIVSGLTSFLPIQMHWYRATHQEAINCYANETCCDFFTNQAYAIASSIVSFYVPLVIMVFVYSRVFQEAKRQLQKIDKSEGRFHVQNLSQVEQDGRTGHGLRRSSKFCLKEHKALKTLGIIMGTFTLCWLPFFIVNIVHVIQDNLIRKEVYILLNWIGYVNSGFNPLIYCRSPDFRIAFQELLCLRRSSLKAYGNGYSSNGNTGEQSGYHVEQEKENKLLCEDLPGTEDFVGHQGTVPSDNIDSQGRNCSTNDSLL
# Sequence of Dual specificity protein kinase CLK1 (P49759 whole entry): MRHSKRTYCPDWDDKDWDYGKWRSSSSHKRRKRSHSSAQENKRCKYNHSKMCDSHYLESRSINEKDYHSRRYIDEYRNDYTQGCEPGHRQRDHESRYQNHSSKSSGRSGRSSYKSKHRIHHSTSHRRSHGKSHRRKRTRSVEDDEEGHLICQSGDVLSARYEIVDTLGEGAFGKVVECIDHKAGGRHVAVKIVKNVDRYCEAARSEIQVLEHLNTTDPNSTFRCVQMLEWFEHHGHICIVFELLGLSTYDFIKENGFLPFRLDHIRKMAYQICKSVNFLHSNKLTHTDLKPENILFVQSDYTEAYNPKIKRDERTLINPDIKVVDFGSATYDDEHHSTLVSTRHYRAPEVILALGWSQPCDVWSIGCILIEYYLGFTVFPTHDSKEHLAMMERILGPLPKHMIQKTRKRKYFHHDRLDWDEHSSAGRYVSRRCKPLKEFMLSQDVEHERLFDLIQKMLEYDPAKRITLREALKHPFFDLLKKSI
AC50 [1],AC50 [2],SMILES,EC50 (BJ [3]),EC50 (BJ [4]),EC50 (BJ [5]),EC50 [6],IC50 (Jurkat),IC50 [7],EC50 (BJ [8]),EC50 [9]
10.4 µM (active),3.85 µM (active),O=C(COc1ccccc1)Nc1cccc(-c2cn3cccnc3n2)c1,–,–,–,–,–,–,–,–
–,–,CC1CCCN(c2ccc([N+](=O)[O-])cc2C(=O)c2ccccc2)C1 (stereo not given),1.27 µM (active),1.32 µM (active),657 nM (inconclusive),1.29 µM (active),40.6 µM (inactive),> 80 µM (inactive),314 nM (active),12.2 µM (inactive)
